Results published in PMC6164518 (Marine Drugs, 2018).

Tests used:
[1] = molecular target: T1, Electric eel AChE (Electrophorus electricus, UniProt O42275); assay: biochemical; settings: AChE from electric eel; mean ± SD from three separate experiments; read-out: IC50 EeAChE
T1 construct: purchased Sigma-Aldrich (Steinheim, Germany)
Method: (§1) The AChE and BChE inhibitory activities of compounds were determined by using a slightly modified Ellman’s method. Electric eel AChE, equine serum BChE, 5,5′-dithiobis(2-nitrobenzoic acid) (DTNB), phosphate buffer solution (PBS, pH 8.0), acetylthiocholine (ATC) iodide, and butyrylthiocholine (BUC) iodide were purchased from Sigma-Aldrich (Steinheim, Germany). […] Enzyme solutions were prepared at 2.0 U/mL in 2-mL aliquots. The assay medium consisted of 10 μL of enzyme, 40 μL of PBS, 20 μL of 0.01 M DTNB, and 10 μL of tested compound. Assayed solutions of tested compounds were pre-incubated with corresponding ChE for 5 min. The reaction was initiated by the addition of 20 μL of 0.01 M substrate (ATC or BUC). The activity was determined by measuring the increase in absorbance at 410 nm at 37 °C in 2-min intervals using Tecan Spark multimode microplate reader (Mannedorf, Switzerland). The percentage of inhibition (I) was calculated from the measured data as follows: I = (Ac − Ai)/Ac × 100%, where Ai and Ac represent the change in the absorbance in the presence of an inhibitor and without an inhibitor, respectively.

[2] = molecular target: T2, equine serum BChE (Equus caballus, UniProt P81908); assay: biochemical; settings: BChE from equine serum; mean ± SD from three separate experiments; read-out: IC50 eqBChE
T2 construct: purchased Sigma-Aldrich (Steinheim, Germany); host or cells: equine serum
T2 sequence (P81908 whole entry): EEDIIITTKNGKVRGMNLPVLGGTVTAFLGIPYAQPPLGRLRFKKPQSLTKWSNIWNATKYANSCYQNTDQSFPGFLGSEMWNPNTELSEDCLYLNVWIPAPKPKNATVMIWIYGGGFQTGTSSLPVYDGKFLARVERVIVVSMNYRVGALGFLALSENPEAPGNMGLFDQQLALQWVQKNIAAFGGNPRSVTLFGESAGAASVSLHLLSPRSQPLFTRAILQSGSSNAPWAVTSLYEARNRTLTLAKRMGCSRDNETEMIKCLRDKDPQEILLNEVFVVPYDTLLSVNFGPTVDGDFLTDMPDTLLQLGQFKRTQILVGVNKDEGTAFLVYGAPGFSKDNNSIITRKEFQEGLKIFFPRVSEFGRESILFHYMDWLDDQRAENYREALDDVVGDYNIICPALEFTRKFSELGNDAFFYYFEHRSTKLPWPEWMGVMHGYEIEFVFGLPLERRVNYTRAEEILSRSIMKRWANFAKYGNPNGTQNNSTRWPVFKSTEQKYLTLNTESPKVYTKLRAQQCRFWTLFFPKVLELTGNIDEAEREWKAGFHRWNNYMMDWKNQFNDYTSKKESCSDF
Method: as §1

[3] = molecular target: T3, AChE (Electrophorus electricus, UniProt O42275); assay: Kinetic study of AChE inhibition (Lineweaver-Burk, Ellman's method); type: biochemical
T3 construct: purchased Sigma-Aldrich (Steinheim, Germany)
T3 sequence (O42275 24-633): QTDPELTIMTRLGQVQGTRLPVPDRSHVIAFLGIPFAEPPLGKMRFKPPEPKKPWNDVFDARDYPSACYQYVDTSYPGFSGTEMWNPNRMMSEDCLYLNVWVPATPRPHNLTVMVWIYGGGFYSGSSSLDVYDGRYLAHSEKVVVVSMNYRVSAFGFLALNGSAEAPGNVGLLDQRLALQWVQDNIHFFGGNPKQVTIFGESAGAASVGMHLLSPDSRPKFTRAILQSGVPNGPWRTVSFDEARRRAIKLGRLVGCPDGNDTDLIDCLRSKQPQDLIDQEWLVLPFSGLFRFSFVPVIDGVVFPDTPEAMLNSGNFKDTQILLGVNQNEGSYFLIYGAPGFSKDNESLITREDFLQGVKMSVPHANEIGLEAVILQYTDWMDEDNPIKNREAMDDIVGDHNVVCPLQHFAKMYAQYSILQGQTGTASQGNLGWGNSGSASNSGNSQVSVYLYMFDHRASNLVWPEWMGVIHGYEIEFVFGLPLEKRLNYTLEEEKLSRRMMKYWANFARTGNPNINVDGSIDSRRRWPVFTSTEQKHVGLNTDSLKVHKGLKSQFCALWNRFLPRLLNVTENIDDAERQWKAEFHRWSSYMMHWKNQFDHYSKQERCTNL
Method: (§2) Herein, compound 12j was selected as a representative prototype for kinetic assay to obtain information on the mode of action and binding site of this series of analogues. […].
(§3) The equilibrium constant for binding with the free enzyme (Ki) was obtained from the slope against inhibitor concentration. […].
(§4) Kinetic studies of inhibition on AChE and BChE were performed by using Ellman’s method as described above. […]
(§5) (B) Secondary plot of slopes versus 12j concentrations.

[4] = molecular target: T4, BChE (Equus caballus, UniProt P81908); assay: Kinetic study of BChE inhibition (Lineweaver-Burk, Ellman's method); type: biochemical
T4 construct: purchased Sigma-Aldrich (Steinheim, Germany); host or cells: equine serum
T4 sequence (P81908 whole entry): as the sequence (P81908 whole entry) above
Method: as §2, §3, §4, §5

[5] = molecular target: T5, Aβ1–42 (Homo sapiens, UniProt P05067); assay: Inhibition of self-induced Aβ1–42 aggregation (ThT fluorescence); type: biochemical; settings: Aβ1–42 2.5 µM, compound 10 µM, mean ± SD of three experiments
T5 construct: pre-treated Aβ1–42 (GL Biochem Ltd., Shanghai, China) was dissolved in DMSO; purchased GL Biochem Ltd., Shanghai, China
T5 sequence (P05067 672-713 limits assumed): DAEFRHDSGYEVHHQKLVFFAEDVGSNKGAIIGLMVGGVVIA
Method: In order to investigate the inhibition of compounds on Aβ1–42 self-aggregation, a ThT-based fluorometric assay was performed. 1,1,1,3,3,3-hexafluoro-2-propanol (HFIP) pre-treated Aβ1–42 (GL Biochem Ltd., Shanghai, China) was dissolved in DMSO to make a 200 µM stock solution. The stock solution was centrifuged at the speed of 13,500 rpm for 10 min. The above supernatant was used for experiments. The tested compounds were dissolved in DMSO at concentrations of 0.8 mM. A screening assay for the tested compounds to inhibit A aggregation was performed by measuring ThT fluorescence emission. Compounds (2 µL) and 2 µL of 200 µM Aβ1–42 were added into 76 µL of phosphate-buffered saline (PBS at pH 7.4) in a 96-well plate. After incubation for 24 h at room temperature, 80 µL of 5 µM of ThT solution (in 50 mM of glycine-NaOH at pH 8.5) was added to the reaction solution. Fluorescence emission was measured at 490 nm with an excitation wavelength of 450 nm on a Tecan Spark multimode microplate reader. […] The fluorescence intensities were compared, and the % inhibition was calculated by the following equation: 100 − [(Fi − Fb)/(Fo − Fb) × 100], where Fi, Fo and Fb are the fluorescence intensities obtained for Aβ aggregation in the presence of inhibitors Aβ1–42 and ThT; in the presence of Aβ1–42 and THT but no inhibitors; and the blanks containing ThT only.

[6] = molecular target: T6, Aβ1–42 and AChE (Electrophorus electricus, UniProt O42275); assay: Inhibition of AChE-induced Aβ1–42 aggregation (ThT fluorescence); type: biochemical; settings: Aβ1–42 2.5 µM, AChE 0.2 U/mL, compound 8 µM; mean ± SD of three experiments
T6 construct: HFIP pre-treated Aβ1–42 (GL Biochem Ltd., shanghai, China) was dissolved in DMSO; purchased GL Biochem Ltd. (Aβ1–42)
T6 sequence (O42275 24-633): as the sequence (O42275 24-633) above
Method: The stock solution was centrifuged at the speed of 13,500 rpm for 10 min. The above supernatant was used for experiments. […] Fluorescence emission was measured at 490 nm with an excitation wavelength of 450 nm on a Tecan Spark multimode microplate reader.

[7] = in vitro; settings: human
Method: Thus, to verify the hepatotoxicity of 1 and 12j, a 3-(4,5-dimethylthiazol-2-yl)-2,5-diphenyltetrazolium bromide (MTT) assay on the human hepatoma cell line (HepG2) was carried out.
The cytotoxicity of selected compounds was evaluated on HepG2 cells. Cells were inoculated into 96-well plates. After incubation for 24 h, the cells were treated with different concentrations of tested compounds for 24 h, and then were incubated with 10 μL of 3-(4,5-dimethylthiazol-2-yl)-2,5-diphenyltetrazolium bromide (MTT) at 37 °C for 2 h. The formazan dye product was measured by the absorbance at 490 nm on a Tecan Spark multimode microplate reader.

[8] = estimated from secondary plot of slopes versus inhibitor concentration

T1 sequence (O42275 24-633): as above

`COc1c(Br)cc(CC(=O)NCCNc2c3c(nc4ccccc24)CCCC3)cc1Br` [Compound 10a, 2-(3,5-Dibromo-4-methoxyphenyl)-N-(2-((1,2,3,4-tetrahydroacridin-9-yl)amino)ethyl)acetamide] showed an IC50 [1] of 880 ± 74 nM and an IC50 [2] of 230 ± 10 nM.
`COc1c(Br)cc(CC(=O)NCCCNc2c3c(nc4ccccc24)CCCC3)cc1Br` [Compound 10b, 2-(3,5-Dibromo-4-methoxyphenyl)-N-(3-((1,2,3,4-tetrahydroacridin-9-yl)amino)propyl)acetamide] showed an IC50 [1] of 771 ± 27 nM and an IC50 [2] of 233 ± 13 nM.
Work on `COc1c(Br)cc(CC(=O)NCCCCNc2c3c(nc4ccccc24)CCCC3)cc1Br` [Compound 10c, 2-(3,5-Dibromo-4-methoxyphenyl)-N-(4-((1,2,3,4-tetrahydroacridin-9-yl)amino)butyl)acetamide] yielded an IC50 [1] of 1050 ± 161 nM and an IC50 [2] of 195 ± 11 nM.
`COc1c(Br)cc(CC(=O)NCCCCCNc2c3c(nc4ccccc24)CCCC3)cc1Br` [Compound 10d, 2-(3,5-Dibromo-4-methoxyphenyl)-N-(5-((1,2,3,4-tetrahydroacridin-9-yl)amino)pentyl)acetamide] showed an IC50 [1] of 764 ± 16 nM and an IC50 [2] of 100 ± 14 nM.
In the case of `COc1c(Br)cc(CC(=O)NCCCCCCNc2c3c(nc4ccccc24)CCCC3)cc1Br` [Compound 10e, 2-(3,5-Dibromo-4-methoxyphenyl)-N-(6-((1,2,3,4-tetrahydroacridin-9-yl)amino)hexyl)acetamide], the IC50 [1] is reported as 686 ± 45 nM and the IC50 [2] is reported as 54 ± 6 nM.
Work on `COc1c(Br)cc(CC(=O)NCCCCCCCNc2c3c(nc4ccccc24)CCCC3)cc1Br` [Compound 10f, 2-(3,5-Dibromo-4-methoxyphenyl)-N-(7-((1,2,3,4-tetrahydroacridin-9-yl)amino)heptyl)acetamide] yielded an IC50 [1] of 314 ± 10 nM and an IC50 [2] of 53 ± 7 nM.
Work on `COc1c(Br)cc(CC(=O)NCCCCCCCCNc2c3c(nc4ccccc24)CCCC3)cc1Br` [Compound 10g, 2-(3,5-Dibromo-4-methoxyphenyl)-N-(8-((1,2,3,4-tetrahydroacridin-9-yl)amino)octyl)acetamide] yielded an IC50 [1] of 427 ± 16 nM and an IC50 [2] of 325 ± 4 nM.
Compound `COc1c(Br)cc(CC(=O)NCCCCCCCCCCNc2c3c(nc4ccccc24)CCCC3)cc1Br` [Compound 10h, 2-(3,5-Dibromo-4-methoxyphenyl)-N-(10-((1,2,3,4-tetrahydroacridin-9-yl)amino)decyl)acetamide] has an IC50 [1] of 638 ± 26 nM and an IC50 [2] of 516 ± 37 nM.
Work on `COc1ccc(CC(=O)NCCCCCCCNc2c3c(nc4ccccc24)CCCC3)c(Br)c1` [Compound 12a, 2-(2-Bromo-4-methoxyphenyl)-N-(7-((1,2,3,4-tetrahydroacridin-9-yl)amino)heptyl)acetamide] yielded an IC50 [1] of 324 ± 33 nM and an IC50 [2] of 140 ± 4 nM.
In the case of `COc1ccc(CC(=O)NCCCCCCCNc2c3c(nc4ccccc24)CCCC3)cc1` [Compound 12b, 2-(4-Methoxyphenyl)-N-(7-((1,2,3,4-tetrahydroacridin-9-yl)amino)heptyl)acetamide], the IC50 [1] is reported as 750 ± 54 nM and the IC50 [2] is reported as 694 ± 3 nM.
Work on `COc1ccc(CC(=O)NCCCCCCCNc2c3c(nc4ccccc24)CCCC3)cc1Br` [Compound 12c, 2-(3-Bromo-4-methoxyphenyl)-N-(7-((1,2,3,4-tetrahydroacridin-9-yl)amino)heptyl)acetamide] yielded an IC50 [1] of 607 ± 45 nM and an IC50 [2] of 152 ± 6 nM.
Work on `O=C(Cc1ccccc1Br)NCCCCCCCNc1c2c(nc3ccccc13)CCCC2` [Compound 12d, 2-(2-Bromophenyl)-N-(7-((1,2,3,4-tetrahydroacridin-9-yl)amino)heptyl)acetamide] yielded an IC50 [1] of 304 ± 4 nM and an IC50 [2] of 91 ± 17 nM.
Work on `O=C(Cc1cccc(Br)c1)NCCCCCCCNc1c2c(nc3ccccc13)CCCC2` [Compound 12e, 2-(3-Bromophenyl)-N-(7-((1,2,3,4-tetrahydroacridin-9-yl)amino)heptyl)acetamide] yielded an IC50 [1] of 724 ± 3 nM and an IC50 [2] of 149 ± 21 nM.
With `O=C(Cc1ccc(Br)cc1)NCCCCCCCNc1c2c(nc3ccccc13)CCCC2` [Compound 12f, 2-(4-Bromophenyl)-N-(7-((1,2,3,4-tetrahydroacridin-9-yl)amino)heptyl)acetamide] the IC50 [1] was 597 ± 28 nM and the IC50 [2] was 214 ± 4 nM.
In the case of `O=C(Cc1cc(Br)ccc1Br)NCCCCCCCNc1c2c(nc3ccccc13)CCCC2` [Compound 12g, 2-(2,5-Dibromophenyl)-N-(7-((1,2,3,4-tetrahydroacridin-9-yl)amino)heptyl)acetamide], the IC50 [1] is reported as 696 ± 52 nM and the IC50 [2] is reported as 62 ± 6 nM.
Work on `O=C(Cc1cc(Br)cc(Br)c1)NCCCCCCCNc1c2c(nc3ccccc13)CCCC2` [Compound 12h, 2-(3,5-Dibromophenyl)-N-(7-((1,2,3,4-tetrahydroacridin-9-yl)amino)heptyl)acetamide] yielded an IC50 [1] of 729 ± 21 nM and an IC50 [2] of 204 ± 11 nM.
For `O=C(Cc1ccc(F)c(Br)c1)NCCCCCCCNc1c2c(nc3ccccc13)CCCC2` [Compound 12i, 2-(3-Bromo-4-fluorophenyl)-N-(7-((1,2,3,4-tetrahydroacridin-9-yl)amino)heptyl)acetamide], the IC50 [1] was 748 ± 17 nM and the IC50 [2] was 49 ± 4 nM.
With `O=C(Cc1cc(Br)ccc1F)NCCCCCCCNc1c2c(nc3ccccc13)CCCC2` [Compound 12j, 2-(5-Bromo-2-fluorophenyl)-N-(7-((1,2,3,4-tetrahydroacridin-9-yl)amino)heptyl)acetamide] the IC50 [1] was 182 ± 6 nM, the IC50 [2] was 64 ± 6 nM and the “Type of AChE inhibition” value ([3]; Lineweaver-Burk plots) was “linear mixed-type”. For the same compound, the Ki [3, 8] was 97.5 nM, the “Type of BChE inhibition” value ([4]; Lineweaver-Burk plots) was “linear mixed-type” and the Ki [4, 8] was 9.91 nM. For the same compound, the “Inhibition of Aβ Aggregation (%) Self-Induced” value (shortened to “Inhibition … (%) Self-Induced”) [5] was 32.37 ± 0.62%, the “Inhibition of Aβ Aggregation (%) AChE-Induced” value [6] was 47.73 ± 4.35% and the IC50 at 24 h [7] was > 80000 nM.
Compound `O=C(Cc1cc(Cl)ccc1Br)NCCCCCCCNc1c2c(nc3ccccc13)CCCC2` [Compound 12k, 2-(2-Bromo-5-chlorophenyl)-N-(7-((1,2,3,4-tetrahydroacridin-9-yl)amino)heptyl)acetamide] has an IC50 [1] of 383 ± 54 nM and an IC50 [2] of 104 ± 1 nM.
With `O=C(Cc1ccccc1)NCCCCCCCNc1c2c(nc3ccccc13)CCCC2` [Compound 12l, 2-Phenyl-N-(7-((1,2,3,4-tetrahydroacridin-9-yl)amino)heptyl)acetamide] the IC50 [1] was 760 ± 92 nM and the IC50 [2] was 680 ± 54 nM.
For `COc1ccc2c3c1O[C@H]1C[C@@H](O)C=C[C@@]31CCN(C)C2` [Galantamine, reference compound], the “Inhibition … (%) Self-Induced” value [5] was 1.25 ± 0.46% and the “Inhibition … (%) Self-Induced” value ([5]; listed as galantamine) was “no significant inhibition”.
In the case of `Nc1c2c(nc3ccccc13)CCCC2` [Tacrine, reference compound], the IC50 at 24 h [7] is reported as 38900 ± 530 nM.
